From patent US20020004042A1, “Gene therapy for pulmonary edema using adenovirus vectors encoding a beta2adrenergic receptor gene” (priority 2000, published 2002)

Key:
Na,K-ATPase = assay: Western analysis of Na,K-ATPase α1 and β1 in basolateral membrane of A549 cells; type: cell-based, human; conditions: ICI 118,551 10^-6 M 10 minutes prior to procaterol
Protocol: To test if β2AR overexpression can affect active Na^+ transport in vitro, A549 cells were treated as described above prior to measurement of ouabain-sensitive Na^+ transport (an index of Na,K-ATPase activity). […] Additional studies done to establish the mechanisms responsible for this finding included quantification of Na,K-ATPase α1 and β1 expression in the basolateral membrane of A549 cells.

rat lungs = assay: Lung liquid clearance, fluid-filled isolated perfused rat lung preparation; type: in vivo, Sprague-Dawley rats; conditions: procaterol 100 μg every 8 hours by gavage
Protocol: To test if β2AR gene transfer could increase transgene expression and if overexpression could affect the transepithelial osmotic gradient necessary to achieve pulmonary edema clearance, normal Sprague-Dawley rats were infected with the vectors disclosed in Example 1. 250-300 gm male Sprague-Dawley rats were lightly sedated with pentobarbital prior to orotracheal intubation with a 14 g angiocatheter. Adenovirus (4×10^9 pfu) was suspended in […] of a 50% surfactant/50% dialysis buffer mixture (Surfanta, Abbott Laboratories, Columbus, Ohio). […]
Seven days after infection, whole lung transgene expression was measured via Western analysis using a rabbit anti-human β2AR antibody and chemiluminescent detection method. […] To test for in vivo transgene function lung liquid clearance was measured using a well-established isolated lung preparation. […]
To test if agonist-induced loss of receptor function and/or expression occurs in the alveolar epithelium normal rats were treated with the β2AR specific agonist procaterol (100 μg every 8 hours by gavage). Lung liquid clearance was then measured using a fluid-filled isolated lung preparation in the presence of procaterol (10^−6 M instilled into the alveolar airspace and perfused through the pulmonary artery) beginning 4 hours after the first dose. […]

β2AR = target: T1, β2AR (Rattus norvegicus, UniProt P10608); assay: Western analysis of β2AR in apical membranes of peripheral lung of procaterol-treated rats; type: in vivo; conditions: procaterol 100 μg every 8 hours by gavage
T1 construct: from tissue; host or cells: apical membranes of rat peripheral lung
T1 sequence (P10608 whole entry): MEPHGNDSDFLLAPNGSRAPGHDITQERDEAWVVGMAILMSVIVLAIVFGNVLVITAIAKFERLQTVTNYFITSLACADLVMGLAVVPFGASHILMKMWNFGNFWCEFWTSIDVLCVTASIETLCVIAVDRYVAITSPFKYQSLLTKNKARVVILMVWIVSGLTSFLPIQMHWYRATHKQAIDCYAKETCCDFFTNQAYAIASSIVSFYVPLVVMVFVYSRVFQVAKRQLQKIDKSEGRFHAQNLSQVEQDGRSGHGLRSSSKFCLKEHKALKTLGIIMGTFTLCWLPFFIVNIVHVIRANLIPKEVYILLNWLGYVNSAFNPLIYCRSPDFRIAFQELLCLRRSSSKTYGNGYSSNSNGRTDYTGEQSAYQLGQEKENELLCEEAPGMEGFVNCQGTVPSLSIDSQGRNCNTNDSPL
Protocol: To test if agonist-induced loss of receptor function and/or expression occurs in the alveolar epithelium normal rats were treated with the β2AR specific agonist procaterol (100 μg every 8 hours by gavage). Lung liquid clearance was then measured using a fluid-filled isolated lung preparation in the presence of procaterol (10^−6 M instilled into the alveolar airspace and perfused through the pulmonary artery) beginning 4 hours after the first dose. […] Thus, the loss of catecholamine responsive lung liquid clearance in these rats is likely due, in part, to receptor downregulation.

Row | SMILES | effect of antagonist pre-treatment on recruitment of Na,K-ATPase to the cell membrane (Na,K-ATPase) | lung liquid clearance in presence of procaterol after procaterol pretreatment, 4 hours (rat lungs; 4 hours after first dose, 10^-6 M during measurement) | lung liquid clearance in presence of procaterol after procaterol pretreatment, 24 hours (rat lungs; 24 hours) | β2AR expression in apical membranes of peripheral lung (β2AR)
1 | Cc1ccc(OCC(O)C(C)NC(C)C)c2c1CCC2 (stereo not shown) [ICI 118,551] | blocked |  |  | 
2 | CCC(NC(C)C)C(O)c1ccc(O)c2[nH]c(=O)ccc12 (stereo not shown) [procaterol] |  | not different from untreated controls | remained less than naive rats | marked reductions
